Conditions in the first data set: not given
Take `CCCCCCO`: the boiling point was found to be 158 °C, the log10 Henry constant (atm·m³/mol) is -4.77, the log10 vapour pressure (mmHg) was -0.0325 and the melting point is -44.6 °C. Moreover, the ready biodegradability entry was “readily biodegradable”.
For `c1ccc2c(c1)CCc1ccccc1N2`, the melting point worked out at 106 °C.
With `Cc1ccc(O)cc1`, the boiling point was 202 °C, the log10 Henry constant (atm·m³/mol) was -6, the log10 Koc (L/kg) was 2.7 and the log10 vapour pressure (mmHg) was -0.959. Besides, the melting point amounted to 35.5 °C and the ready biodegradability result was “readily biodegradable”.
`Cc1ccc2nccc(C)c2c1`: the boiling point amounted to 274 °C and the melting point was found to be 22 °C.
Regarding `C=C(C=O)CC`, the boiling point was 92.5 °C.
For `Clc1ccc(Cl)nc1`, the melting point was found to be 60.5 °C.
For `C=CCCCCCC`, the boiling point came out at 121 °C, the log10 Koa was 3.35, the log10 vapour pressure (mmHg) worked out at 1.24 and the melting point is -102 °C.
`CC(C)C(=O)O` yielded a boiling point of 154 °C, a log10 Henry constant (atm·m³/mol) of -6.05, a log10 vapour pressure (mmHg) of 0.258 and a melting point of -46 °C. The ready biodegradability entry is listed as “readily biodegradable”.
On to `COc1cc(NS(C)(=O)=O)ccc1Nc1c2ccccc2nc2ccccc12`, for which the melting point came to 235 °C.
For `CC(Cl)CCCl` (centres undefined), the boiling point came to 134 °C.
Compound `CSC` showed a boiling point of 37.3 °C, a log10 Henry constant (atm·m³/mol) of -2.79, a log10 vapour pressure (mmHg) of 2.7 and a melting point of -98.3 °C.
For `C/C=C(/C)C(=O)O[C@H]1CCN2CC=C(COC(=O)[C@](O)([C@H](C)OC)C(C)(C)O)[C@H]12`, the melting point came out at 95 °C.
The compound `CC(O)CN` (centres undefined) registered a boiling point of 160 °C, a log10 vapour pressure (mmHg) of -0.328 and a melting point of 25 °C.
Regarding `Cc1ccccc1NC(=S)Nc1ccccc1C`, the melting point came out at 158 °C.
For the compound `NS(=O)(=O)c1cc(-c2nnn[nH]2)c(NCc2cccs2)cc1Cl`, the melting point is 220 °C.
Consider `CCN(CC)C(=O)c1cccc(C)c1`, for which the boiling point came to 290 °C, the log10 vapour pressure (mmHg) was -2.7, the melting point was -45 °C and the ready biodegradability result was “not readily biodegradable”.
As to `O=C(O)CCCCCC(=O)O`, the boiling point was determined as 342 °C, the log10 vapour pressure (mmHg) is -7.05 and the melting point was 106 °C.
In the case of `Cc1c(Cl)c(=O)oc2cc(OP(=O)(OCCCl)OCCCl)ccc12`, the melting point is 91 °C.
Same read-out and setting: to `CC(C)=CCCC(C)CC(=O)O` (centres undefined) belongs 257 °C.
The same measure, in the same setting: in the case of `O=C(NC(=O)c1c(F)cccc1F)Nc1ccc(CO/N=C(\c2ccc(Cl)cc2)C2CC2)cc1` it was 144 °C.
`CCCCCCN(CCCCCC)CCCCCC` gave a boiling point of 262 °C.
Compound `CC(C)=CCOc1c2occc2cc2ccc(=O)oc12` had a melting point of 102 °C.
Take `CCOc1ccc(CC)cc1`: the boiling point is 210 °C.
`Clc1ccc(Oc2cc(Cl)cc(Cl)c2)cc1` yielded a log10 vapour pressure (mmHg) of -3.76.
In turn, `Cc1cccc(Cl)c1` came in with a boiling point of 162 °C, a log10 vapour pressure (mmHg) of 0.565 and a melting point of -47.8 °C.
`O=C(Nc1ccccc1)NC1CC1` had a log10 Koc (L/kg) of 1.74.
`Cc1nc([N+](=O)[O-])cn1-c1ccc([N+](=O)[O-])cc1`: the melting point worked out at 186 °C.
For the compound `OCC(F)(F)C(F)(F)C(F)(F)C(F)(F)C(F)(F)C(F)(F)C(F)(F)C(F)(F)C(F)(F)C(F)F`, the ready biodegradability result was “not readily biodegradable”.
For the compound `CCCCCCCCCCC(=O)OCC`, the log10 vapour pressure (mmHg) is -2.37 and the melting point is -15 °C.
Compound `O=C(O)c1cc(F)c(F)c(F)c1F` had a melting point of 86 °C.
As for `COc1ccc(-c2ccccc2)cc1`, the melting point came out at 90 °C.
Compound `CC#CCCO` showed a boiling point of 154 °C.
As for `CCCCCC(=O)OCC(COC(=O)CCCCC)OC(=O)CCCCC`, the melting point is -60 °C.
Regarding `C1CCC(CCCCCC2CCCCC2)CC1`, the boiling point is 325 °C and the melting point was -13.6 °C.
The compound `C=C[Si](C)(C)Cl` returned a boiling point of 83.5 °C.
Still for that read-out and setting: in the case of `Cc1ccccc1C=O` it was 200 °C.
Compound `C=CCC(C)(C)C` returned a boiling point of 72.5 °C and a melting point of -137 °C.
In the case of `CCOC(=O)COC(=O)c1cc(Oc2ccc(C(F)(F)F)cc2Cl)ccc1[N+](=O)[O-]`, the melting point is 65 °C.
The compound `CCO[Si](C)(C)OCC` showed a boiling point of 114 °C, a log10 vapour pressure (mmHg) of 1.3 and a melting point of -87 °C.
`CC(C)(C)c1cc(CCC(=O)OCC(COC(=O)CCc2cc(C(C)(C)C)c(O)c(C(C)(C)C)c2)(COC(=O)CCc2cc(C(C)(C)C)c(O)c(C(C)(C)C)c2)COC(=O)CCc2cc(C(C)(C)C)c(O)c(C(C)(C)C)c2)cc(C(C)(C)C)c1O`: the ready biodegradability result is given as “not readily biodegradable”.
In turn, `Nc1ccc(-c2ccc(Cl)cc2)cc1` showed a melting point of 134 °C.
The compound `C=CCC(C(C)=O)C(C)=O` returned a boiling point of 199 °C.
`C=CC=CC#N` showed a boiling point of 136 °C and a melting point of -60 °C.
`CC(=O)Oc1ccc([N+](=O)[O-])cc1` yielded a melting point of 78 °C.
Compound `CCC1CC1` gave a boiling point of 35.9 °C and a melting point of -149 °C.
Compound `Cc1cc(C(C)(C)c2ccc(O)c(C)c2)ccc1O` had a melting point of 139 °C.
On the same count and under the same terms, in the case of `C[C@@H]1CCC[C@H](C)C1` (racemic) it was -82.8 °C; in that of `Nc1c([N+](=O)[O-])cccc1[N+](=O)[O-]`, 142 °C.
`FC(F)(F)C(F)(C(F)(F)F)C(F)(F)F` registered a boiling point of 0 °C.
In turn, `CCCCCCCCCCCCCC(=O)CC` registered a melting point of 43 °C.
With `CC[C@H]1CCCC[C@H]1C`, the boiling point came out at 154 °C.
In turn, `CCOC(=O)/C=C(C)/C=C/CC(C)CCCC(C)C` (centres undefined) came in with a log10 vapour pressure (mmHg) of -3.61.
Turning to `COP(=O)(O)OC`, the boiling point is 174 °C.
For `CN(C)c1ccc(Br)cc1`, the boiling point is 264 °C and the melting point came out at 55 °C.
Consider `CC(Cl)(Cl)CCl`, for which the boiling point is 124 °C.
`Cc1ccc2sccc2c1` displayed a melting point of 20.5 °C.
`CCN(CCO)CCCC(C)Nc1ccnc2cc(Cl)ccc12` (centres undefined): the melting point came out at 90 °C.
The compound `CC1=CC(=O)c2c(O)cccc2C1=O` showed a melting point of 78.5 °C.
On to `Sc1ccccc1`, for which the boiling point is 169 °C, the log10 vapour pressure (mmHg) was 0.286, the melting point was -14.9 °C and the ready biodegradability entry was “not readily biodegradable”.
With `CCCCCN1CCCCC1`, the boiling point came to 198 °C.
As for `CC(=O)OC1CCC(C(C)(C)C)CC1` (centres undefined), the log10 vapour pressure (mmHg) is -2.12 and the melting point was -50 °C.
With `O=C(O)[C@H](O)[C@@H](O)[C@H](O)[C@H](O)C(O)CO` (some centres undefined), the melting point was found to be 146 °C.
`CS(=O)(=O)Cl` showed a boiling point of 162 °C.
Compound `CCC(C)C1(CC)C(=O)NC(=S)NC1=O` (centres undefined) registered a melting point of 169 °C.
The compound `Brc1cccc2c1Oc1cccc(Br)c1O2` showed a log10 vapour pressure (mmHg) of -5.95 and a melting point of 207 °C.
Take `C/C=C\C(C)(C)C`: the boiling point came to 80.4 °C and the melting point was -135 °C.
`C=C1C2CCC3C(CCC4C35CCC[C@]4(C)CN3CCO[C@H]35)(C2)[C@H]1O` (some centres undefined) yielded a melting point of 120 °C.
`CCCCC(C(N)=O)n1nnc2ccccc21` (centres undefined) yielded a melting point of 118 °C.
For the compound `COc1ccc2c(c1)c(CC(=O)O)c(C)n2C(=O)c1ccc(Cl)cc1`, the melting point came to 158 °C.
`CC/C(=C(\c1ccccc1)c1ccc(OCCN(C)C)cc1)c1ccccc1` showed a melting point of 97 °C.
Turning to `Cc1ccccc1C(=O)O`, the boiling point was determined as 259 °C, the log10 vapour pressure (mmHg) was -3.18, the melting point was determined as 104 °C and the ready biodegradability result was “readily biodegradable”.
In the case of `C[C@@H]1CCC[C@H](C)N1`, the boiling point came out at 127 °C and the ready biodegradability result is reported as “not readily biodegradable”.
On to `Clc1cccc(Br)c1Cl`, for which the boiling point is 245 °C and the melting point stood at 60 °C.
As to `Cc1ccc(C(=O)N(C)C)cc1`, the melting point was found to be 41 °C.
For `C=Cc1ccc(Cl)cc1`, the boiling point was found to be 192 °C, the log10 vapour pressure (mmHg) was -0.0885, the melting point is 15.9 °C and the ready biodegradability result was “not readily biodegradable”.

Staying with this data set, now noted: fish.
As for `CC12CCCC1C1CCC3CCCCC3(C)C1CC2` (centres undefined), the log10 biotransformation half-life (days) was determined as 1.67.
As for `CCN(CC)C(=O)c1cccc(C)c1`, the log10 BCF turned out to be 0.38.
The same measure, in the same setting: in the case of `C[C@@H]1CCC[C@H](C)N1` it was 0.7.
